{
  "source": "the NIST ThermoML archive (doi:10.1016/j.jct.2018.01.019)",
  "details": "Crystal 2; DSC",
  "note": "± gives the expanded uncertainty stated by the source.",
  "data": [
    {"smiles": "O=[Si]=O", "note": "[silicon dioxide]", "values": [
      {"measurement": "Triple point temperature", "value": "848 ± 2", "unit": "K"}
    ]}
  ]
}
